{"source": "patent US7371764B2", "about": "“Quinolin-isoquinolin-and quinazolin-oxyalkylamides and their use as fungicides” (priority 2002, dated 2008)", "key": {"Pythium ultimum": {"test_system": "Pythium ultimum", "assay": "Pythium ultimum (Damping off) growth inhibition in potato dextrose broth, microtiter plate", "assay_type": "cell-based", "conditions": "Globisporangium ultimum, 24° C., after 48 hours, read-out: control of fungal infection (inhibition of growth, determined photometrically)"}, "Pyrenophora teres": {"test_system": "Pyrenophora teres", "assay_type": "in vivo", "conditions": "200 ppm"}, "Septoria nodorum": {"test_system": "Septoria nodorum", "assay_type": "in vivo", "conditions": "200 ppm"}, "[1]": {"test_system": "Puccinia recondita f.sp. tritici", "assay_type": "in vivo", "conditions": "200 ppm"}}, "note": "Read-outs that look alike come from different tables or passages of the source.", "data": [{"smiles": "CC#CC(C)(C)NC(=O)C(COC)Oc1ccc2ncccc2c1", "note": "(centres unmarked) [2(11), 2-(6-quinolinyloxy)-N-(2-methylpent-3-yn-2-yl)-3-methoxypropionamide]", "values": [{"measurement": "inhibition at 20 ppm", "setting": "Pythium ultimum; potato dextrose broth", "value": "> 60", "unit": "%"}]}, {"smiles": "CC#CC(C)(C)NC(=O)C(CC)Oc1ccc2ncncc2c1", "note": "(centres unmarked) [2(20), 2-(6-quinazolinoxy)-N-(4-methylpent-2-yn-4-yl) butyramide]", "values": [{"measurement": "control of fungal infection (preventive fungicidal activity)", "setting": "Pyrenophora teres", "value": "more than 60%"}]}, {"smiles": "CC#CC(C)(C)NC(=O)C(COC)Oc1ccc2ccncc2c1", "note": "(centres unmarked) [2(49), 2-(7-isoquinolinyloxy)-N-(2-methylpent-3-yn-2-yl)-3-methoxypropionamide]", "values": [{"measurement": "melting point", "value": "155 to 156", "unit": "°C"}, {"measurement": "inhibition at 20 ppm", "setting": "Pythium ultimum; potato dextrose broth", "value": "> 60", "unit": "%"}]}, {"smiles": "CCC(Oc1ccc2ncccc2c1)C(=O)NC(C)(C)C#CCO", "note": "(centres unmarked) [10(1), 2-(6-quinolinyloxy)-N-(1-hydroxy-4-methylpent-2-yn-4-yl) butyramide]", "values": [{"measurement": "control of fungal infection (preventive fungicidal activity)", "setting": "Septoria nodorum", "value": "more than 60%"}]}, {"smiles": "CCC(Oc1ccc2ncccc2c1)C(=O)NC(C)(C)C#CCOC", "note": "(centres unmarked) [12(1), 2-(6-quinolinyloxy)-N-(1-methoxy-4-methylpent-2-yn-4-yl)butyramide]", "values": [{"measurement": "inhibition at 20 ppm", "setting": "Pythium ultimum", "value": "> 60", "unit": "%"}]}, {"smiles": "CCC(Oc1ccc2ncccc2c1)C(=O)NC(C)(C)C#CCO[Si](C)(C)C(C)(C)C", "note": "(centres unmarked) [50(1), 2-(6-quinolinyloxy)-N-(1-tert-butyldi-methylsilyloxy-4-methylpent-2-yn-4-yl)butyramide]", "values": [{"measurement": "inhibition at 20 ppm", "setting": "Pythium ultimum", "value": "> 60", "unit": "%"}]}, {"smiles": "CCC(Oc1ccc2ncc(Br)cc2c1)C(=O)NC(C)(C)C#CCCCC#N", "note": "(centres unmarked) [90(77), 2-(3-bromo-6-quinolinyloxy)-N-(1-cyano-6-methylhept-4-yn-6-yl) butyramide]", "values": [{"measurement": "control of fungal infection (preventive fungicidal activity)", "setting": "[1]", "value": "more than 60%"}]}]}
